In PubChem BioAssay (NCI):
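48-hour exposure; five concentrations; linearly interpolated endpoints. Definition used: TGI = concentration required for complete inhibition of growth.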 Where a SMILES comes first, the peptide text is derived from it. The star is where a group is joined. Pentanoyl = CCCCC(=O)*; Boc = CC(C)(C)OC(=O)*

Columns and labels:
Assay in all cases: DTP human tumour cell line panel, 48 h
[1] = tested on: IGROV1 ovarian
[2] = tested on: MCF7 breast
[3] = tested on: MDA-MB-435
[4] = tested on: HOP-62 NSCLC
[5] = tested on: DU-145 prostate
[6] = tested on: RPMI-8226 leukemia
[7] = tested on: M14 melanoma
[8] = tested on: SF-268 CNS
[9] = tested on: OVCAR-3 ovarian
[10] = tested on: TK-10 renal
[11] = tested on: A498 renal
[12] = tested on: UACC-257 melanoma
[13] = tested on: HOP-92 NSCLC
[14] = tested on: A549 NSCLC
[15] = tested on: NCI-H522 lung
[16] = tested on: NCI/ADR-RES ovarian
[17] = tested on: LOX IMVI melanoma
[18] = tested on: NCI-H23 lung
[19] = tested on: CAKI-1 renal
[20] = tested on: HCT-116 colon
[21] = tested on: CCRF-CEM leukemia
[22] = tested on: SF-539 CNS
[23] = tested on: K-562 leukemia
[24] = tested on: SK-MEL-5 melanoma
[25] = tested on: RXF 393 renal
[26] = tested on: SK-MEL-2 melanoma
[27] = tested on: OVCAR-8 ovarian
[28] = tested on: UACC-62 melanoma
[29] = tested on: BT-549 breast
[30] = tested on: SW-620 colon
[31] = tested on: PC-3 prostate
[32] = tested on: NCI-H226 lung
[33] = tested on: SNB-75 CNS
[34] = tested on: NCI-H460 lung
[35] = tested on: OVCAR-5 ovarian
[36] = tested on: MOLT-4 leukemia
[37] = tested on: HS 578T breast
[38] = tested on: SK-MEL-28 melanoma
[39] = tested on: KM12 colon
[40] = tested on: SNB-19 CNS
[41] = tested on: 786-0 renal
[42] = tested on: SK-OV-3 ovarian
[43] = tested on: MDA-MB-231 breast
[44] = tested on: T-47D breast
[45] = tested on: HCT-15 colon
[46] = tested on: ACHN renal
[47] = tested on: SF-295 CNS
[48] = tested on: MALME-3M melanoma
[49] = tested on: HT29 colon
[50] = tested on: OVCAR-4 ovarian
[51] = tested on: COLO 205 colon
[52] = tested on: SN12C renal
[53] = tested on: U251 CNS
[54] = tested on: HCC-2998 colon
[55] = tested on: HL-60(TB) leukemia
[56] = tested on: MDA-N
[57] = tested on: UO-31 renal
[58] = tested on: EKVX NSCLC
[59] = tested on: SR leukemia

`CCCCC(=O)Oc1ccc(CC(NC(=O)OC(C)(C)C)C(=O)NC(C)C(=O)NC(Cc2ccccc2)C(=O)NCC(N)=O)cc1` (stereo not given) (Boc-Y(Pentanoyl)AFG-NH2; configuration not given here) showed a TGI [1] of 53.7 µM, a TGI [2] of 41.8 µM and a TGI [3] of 45.1 µM. The TGI [4] was 50 µM, the TGI [5] was greater than 100 µM and the TGI [6] was 44.8 µM. It also gave a TGI [7] greater than 100 µM, a TGI [8] greater than 100 µM and a TGI [9] of 39.2 µM. For the same compound, the TGI [10] was greater than 100 µM, the TGI [11] was greater than 100 µM and the TGI [12] was 71.4 µM. It also gave a TGI [13] of 99.4 µM, a TGI [14] greater than 100 µM and a TGI [15] of 39.5 µM. For the same compound, the TGI [16] was greater than 100 µM, the TGI [17] was 30.7 µM and the TGI [18] was greater than 100 µM. For the same compound, the TGI [19] was greater than 100 µM, the TGI [20] was 47.1 µM and the TGI [21] was greater than 100 µM. It also gave a TGI [22] greater than 100 µM, a TGI [23] greater than 100 µM and a TGI [24] greater than 100 µM. It also gave a TGI [25] greater than 100 µM, a TGI [26] of 41.1 µM and a TGI [27] of 62.5 µM. For the same compound, the TGI [28] was 45.5 µM, the TGI [29] was 55.7 µM and the TGI [30] was greater than 100 µM. For the same compound, the TGI [31] was greater than 100 µM, the TGI [32] was greater than 100 µM and the TGI [33] was greater than 100 µM. The TGI [34] was greater than 100 µM, the TGI [35] was 52 µM and the TGI [36] was 54.2 µM. The TGI [37] was greater than 100 µM, the TGI [38] was 64.1 µM and the TGI [39] was 47.8 µM. It also gave a TGI [40] of 59 µM, a TGI [41] greater than 100 µM and a TGI [42] greater than 100 µM. It also gave a TGI [43] of 41.6 µM, a TGI [44] of 79 µM and a TGI [45] greater than 100 µM. For the same compound, the TGI [46] was greater than 100 µM, the TGI [47] was greater than 100 µM and the TGI [48] was greater than 100 µM. The TGI [49] was 40 µM, the TGI [50] was greater than 100 µM and the TGI [51] was 37.6 µM. The TGI [52] was greater than 100 µM, the TGI [53] was 40.6 µM and the TGI [54] was 38.8 µM. It also gave a TGI [55] of 61 µM, a TGI [56] of 65.8 µM and a TGI [57] greater than 100 µM.
`Cc1cnc(-c2c[nH]c3ccccc23)nc1-c1c[nH]c2ccccc12` showed a TGI [1] of 14.8 µM, a TGI [2] of 19.1 µM and a TGI [3] of 19.8 µM. It also gave a TGI [4] of 24.8 µM, a TGI [5] of 20.1 µM and a TGI [6] greater than 100 µM. It also gave a TGI [7] of 16.4 µM, a TGI [8] of 35.6 µM and a TGI [9] of 21.7 µM. It also gave a TGI [10] of 18.1 µM, a TGI [11] of 7.03 µM and a TGI [12] of 20.5 µM. For the same compound, the TGI [13] was 7.21 µM, the TGI [14] was 20.2 µM and the TGI [16] was greater than 100 µM. For the same compound, the TGI [17] was 17.1 µM, the TGI [19] was 23.2 µM and the TGI [20] was 16.4 µM. For the same compound, the TGI [21] was 4.92 µM, the TGI [22] was 30.7 µM and the TGI [58] was 19.3 µM. The TGI [23] was 26 µM, the TGI [24] was 20.5 µM and the TGI [26] was 20.6 µM. It also gave a TGI [27] of 22.7 µM, a TGI [28] of 17.4 µM and a TGI [29] of 67.7 µM. For the same compound, the TGI [30] was 30.2 µM, the TGI [31] was 14.2 µM and the TGI [33] was 9.64 µM. It also gave a TGI [34] of 14.8 µM, a TGI [35] of 20.9 µM and a TGI [36] of 28.4 µM. It also gave a TGI [37] greater than 100 µM, a TGI [39] of 15.6 µM and a TGI [40] of 24.9 µM. For the same compound, the TGI [41] was 10.7 µM, the TGI [42] was 24 µM and the TGI [43] was 7.78 µM. For the same compound, the TGI [44] was 9.15 µM, the TGI [45] was 27 µM and the TGI [46] was 10 µM. It also gave a TGI [47] of 15.2 µM, a TGI [49] of 14.7 µM and a TGI [50] of 24.3 µM. The TGI [51] was 16.8 µM, the TGI [52] was 8.53 µM and the TGI [53] was 19.7 µM. The TGI [54] was 15.8 µM, the TGI [55] was 25.1 µM and the TGI [59] was 33.9 µM. It also gave a TGI [56] of 15.8 µM and a TGI [57] of 20.8 µM.
